One test concerns p-IκBα and COX-2. The test is described as follows: LPS-induced acute inflammation, western blot of p-IκBα and COX-2 in lung and liver. Format: in vivo, mouse. As to conditions: acute treatment, LPS 10 mg/kg. The method, then: Fig 6 Newly identified NBD mimetics suppress LPS-induced acute inflammation in vivo. (A) The bioavailability property of SR12460, SR12343, SR12454, and SR11481. Concentrations of NBD mimetics were determined in plasma, brain, muscle, spleen, and liver 2 h post a single i.p. injection of 10 mg/kg of drugs; n = 3 per group. (B) Shown is the model to induce LPS-mediated acute inflammation and the treatment regimen with NBD mimetics. Mouse image via http://www.clker.com/clipart-mice-blank.html (copyright-free). (C) NBD mimetics suppressed LPS-induced acute inflammation in liver and lung by down-regulating NF-κB target gene expression. Vehicle, SR12343, SR12460, and 8K-NBD peptide were dosed at 10 mg/kg 30 min prior to the LPS treatment. Acute inflammation was induced by i.p. injection of 10 mg/kg LPS. Lung and liver were collected 2–4 h post injection, and mRNA was extracted for qRT-PCR analysis. (D, E) Western blot analysis was performed to probe for the expression of p-IκBα and COX-2 at protein level in liver and lung tissues. (F) Serum levels of IL-6 were determine by ELISA. n = 3–8 each group. *P < 0.05, **P < 0.01. […] COX-2, cyclooxygenase 2; IL-6, interleukin 6; i.p., intraperitoneal; LPS, lipopolysaccharide; NBD, NEMO-binding domain; n.d., nondetectable; NEMO, NF-κB essential modulator; NF-κB, nuclear factor κB; qRT-PCR, quantitative real-time polymerase chain reaction. […]
(In general: In western blotting, separated proteins are transferred to a membrane and probed.)

A further test has as its system Ercc1−/Δ mice. The test is described as follows: Chronic treatment of Ercc1−/Δ mice (health span). It is filed as in vivo, mouse. As to conditions: preliminary experiments. An excerpt:
Thus, these novel NBD mimetics could be used not only for treatment of inflammatory and degenerative diseases but also for aging.

Turning to `O=C(CNc1ccc(Cl)cn1)NCCc1cccc(Br)c1` [SR12343], the “Phosphorylation of IκBα and levels of COX-2 in lung and liver (western blot)” value in the test on p-IκBα and COX-2 is given as “reduced”. In addition, the Health span result with Ercc1−/Δ mice is on record as “extended health span”.

(Values after paper PMC6013238, “Development of novel NEMO-binding domain mimetics for inhibiting IKK/NF-κB activation” (PLoS Biology, 2018).)
